In patent US7166298B2, “Genetic immunization with cationic lipids” (Invitrogen Corporation, priority 1993, dated 2007):

Key:
cell lines [1] = conditions: transfection of certain cell lines, compared with DOTMA; cited from earlier work
cell lines [2] = conditions: certain cell lines, compared with DOTMA; cited from earlier work
[3] = system: anti-CAT immune response in mice; assay: ELISA and Western blot after IP immunization with CAT plasmids with different promoters (Example 3); type: in vivo; conditions: compared with LIPOFECTACE
Description: A CAT enzyme-linked immunoassay (ELISA) was used to determine the presence of CAT antibodies in mouse sera samples. Microwell titer plates were prepared by incubating each well of the plate with 1 microgram/ml of CAT in 0.1 M sodium carbonate buffer, pH 9.5. The plates were incubated for 18 hours at 4ΕC. The wells were blocked with 0.2% ovalbumin dissolved in phosphate-buffered saline (PBS) with 0.1% Tween-20 (dilution buffer). Samples were diluted in the dilution buffer, and 200 microliters were added to a well on the plate. The plate was sealed, and then incubated for 60 minutes at 37 degrees C. Following a wash, the plates were incubated with 0.1 micrograms/ml goat anti-mouse IgG—horseradish peroxidase (HRP) conjugate. The plate was sealed and then incubated for 30 minutes at 37 degrees C. Following a second wash, the plates were developed with 3,3′,5,5′-tetramethylbenzidine substrate at room temperature. The reaction was stopped by adding 2N sulfuric acid.
The results were analyzed using Western Blot analysis. Nitrocellulose sheets were prepared by applying purified CAT protein to the nitrocellulose (0.1 micrograms CAT protein/cm nitrocellulose). Sera samples were diluted into dilution buffer and 2 ml were added to each nitrocellulose strip. The strips were incubated for 90 minutes with rocking at room temperature. […]

Structure (SMILES)	toxicity (cell lines [1])	transfection efficiency (cell lines [2])	consistency in generating an immune response (ELISA) [3]
CCCCCCCCCCCCCCCCCCN(CCCCCCCCCCCCCCCCCC)C(=O)CNC(=O)C(CCCNCCCN)NCCCN (stereo not shown) [DOGS, 5-carboxylspermylglycine dioctadecylamide]	less toxic than DOTMA	more efficient	
CCCCCCCCC=CCCCCCCCCOCC(C[N+](C)(C)CCBr)OCCCCCCCCC=CCCCCCCCC.[Br-] (stereo not shown) [bromo lipid, 1-propanaminium, N-[2(2-bromo)ethyl]-N,N-dimethyl-2,3-bis(9-octadecenyloxy)-bromide]			more consistent results
CC(C)CCC[C@@H](C)[C@H]1CC[C@H]2[C@@H]3CC=C4C[C@@H](OC(=O)NCCN(C)C)CC[C@]4(C)[C@H]3CC[C@]12C [DC-Chol]	lower toxicity	more efficient transfection	
CCCCCCCCCCCCCCCC(=O)OCC(COP(=O)(O)OCCNC(=O)C(CCCNCCCN)NCCCN)OC(=O)CCCCCCCCCCCCCCC (stereo not shown) [DPPES, dipalmitoylphosphatidylethanolamine 5-carboxyspermylamide]	less toxic than DOTMA	more efficient	
